From patent publication US10550096B2, “Tetrahydroisoquinolines as PRMT5 inhibitors” (CTXT PTY LTD, priority 2016, dated 2020)
Structures can show the parent of a compound that is named as a salt.

Assays:
[1] = molecular target: Full-length PRMT5 enzyme co-expressed with His6-MEP50 (Homo sapiens (Human), UniProt O14744); experiment: PRMT5 Biochemical Assay; conditions: histone H4 derived peptide substrate 1 μM, 1 μM S-Adenosyl methionine, 4 hours at 37 degree Celsius, Transcreener EPIGEN fluorescence polarisation
Experimental: Compounds of the invention may be tested for in vitro activity in the following assay:
A histone H4 derived peptide is used as substrate (amino acid sequence: […]NH2). Full-length PRMT5 enzyme (NCBI Reference sequence NP_006100.2) was co-expressed with His6-MEP50 in insect cells and purified via Nickel immobilized metal affinity and gel filtration chromatography (“the enzyme”).
The 6 μL reactions are run in Greiner brand black 384-well low volume assay plates. All reactions contained assay buffer (phosphate buffered saline, 0.01% (v/v) Tween-20, 0.01% (w/v) albumin from chicken egg white, 1 mM Dithiothreitol, 1 μM peptide substrate, 1 μM S-Adenosyl methionine, and 15 ng/reaction enzyme, with the enzyme being omitted from negative control reactions. Compounds were added in a volume of 100 nL from dilution series prepared in DMSO, positive and negative control reactions receiving the same volume DMSO without compound. The plates were sealed with adhesive seals and incubated for 4 hours at 37 degree Celsius. Reaction progress was measured using the Transcreener™ EPIGEN methyltransferase assay (BellBrook Labs, Madison, Wis.) as recommended by the manufacturer. To each reaction 2 μL detection mix were added, containing coupling enzymes, fluorescence polarisation tracer, and AMP antibody. Plates were incubated for 90 minutes before being read on a PerkinElmer EnVision™ plate reader in fluorescence polarisation mode. IC50 values were obtained from the raw readings by calculating percent inhibition (% I) for each reaction relative to controls on the same plate (% I=(I−CN)/(CP−CN) where CN/CP are the averages of the negative/positive reactions, respectively), then fitting the % I data vs. compound concentration [I] to % I=(A+((B−A)/(1+((C/[I])^D)))) where A is the lower asymptote, B is the upper asymptote, C is the IC50 value, and D is the slope.

[2] = tested on: TE11 cells; experiment: PRMT5 Biomarker Assay (symmetrical dimethylation of arginine, Histone H4 Arginine 3); format: cell-based; conditions: Homo sapiens, TE-11; TE11 cell line, 72 hours incubation, Di-Methyl Histone H4 Arginine 3 level, high content imaging
Experimental: Compounds of the invention may be tested for potency to inhibit symmetrical dimethylation of arginine in the following assay:
The cell line TE11 was seeded at a density of 6,000 cells per well in 96 well optical quality tissue culture plates in DME medium and 10% foetal bovine serum, and allowed to adhere for 5 hours under standard culture conditions (37 degree Celsius, 5% CO2). Compound dilutions prepared in DMSO were added to the medium, with negative control wells reserved for treatment with DMSO only and maximum inhibition controls receiving a potent PRMT5 inhibitor compound at 1 μM concentration. After incubation for 72 hours, the cells were fixed with 3.7% formaldehyde in PBS for 30 minutes at room temperature, washed with phosphate buffer saline and blocked with Odyssey blocking buffer (LI-COR, Lincoln, Nebr.). Rabbit anti-Di-Methyl Histone H4 Arginine 3 specific antibody (Epigentek) in Odyssey blocking buffer was added and incubated for 14 hours at 4 degree Celsius. […] Plates were washed and read on a PerkinElmer Envision 2103 in fluorescence intensity scanning mode (24 scans across the well area). […] Using a Columbus image analysis pipeline, individual nuclei were located by Hoechst 33342 stain and the methylation level was calculated from the Alexa647-related intensity in the same area. […]

Chain of Full-length PRMT5 enzyme co-expressed with His6-MEP50 (O14744 whole entry): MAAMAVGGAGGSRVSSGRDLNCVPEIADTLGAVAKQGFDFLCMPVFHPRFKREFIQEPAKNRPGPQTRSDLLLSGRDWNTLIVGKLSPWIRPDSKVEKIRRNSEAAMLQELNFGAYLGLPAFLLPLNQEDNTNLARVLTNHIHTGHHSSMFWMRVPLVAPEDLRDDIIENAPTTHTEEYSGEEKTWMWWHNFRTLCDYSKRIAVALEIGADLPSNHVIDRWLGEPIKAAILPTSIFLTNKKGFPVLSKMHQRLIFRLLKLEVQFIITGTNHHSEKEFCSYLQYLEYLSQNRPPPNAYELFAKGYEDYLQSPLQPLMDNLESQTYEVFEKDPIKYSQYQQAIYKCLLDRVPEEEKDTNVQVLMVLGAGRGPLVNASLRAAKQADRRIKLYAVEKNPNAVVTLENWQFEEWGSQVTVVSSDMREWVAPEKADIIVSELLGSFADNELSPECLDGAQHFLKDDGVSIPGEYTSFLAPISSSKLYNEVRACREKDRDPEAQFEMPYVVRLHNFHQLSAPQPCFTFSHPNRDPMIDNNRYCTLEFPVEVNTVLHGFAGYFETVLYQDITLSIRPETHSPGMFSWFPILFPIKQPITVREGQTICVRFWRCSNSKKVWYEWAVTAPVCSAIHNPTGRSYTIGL
Chain of Full-length PRMT5 enzyme co-expressed with His6-MEP50 (Q9BQA1 whole entry partner): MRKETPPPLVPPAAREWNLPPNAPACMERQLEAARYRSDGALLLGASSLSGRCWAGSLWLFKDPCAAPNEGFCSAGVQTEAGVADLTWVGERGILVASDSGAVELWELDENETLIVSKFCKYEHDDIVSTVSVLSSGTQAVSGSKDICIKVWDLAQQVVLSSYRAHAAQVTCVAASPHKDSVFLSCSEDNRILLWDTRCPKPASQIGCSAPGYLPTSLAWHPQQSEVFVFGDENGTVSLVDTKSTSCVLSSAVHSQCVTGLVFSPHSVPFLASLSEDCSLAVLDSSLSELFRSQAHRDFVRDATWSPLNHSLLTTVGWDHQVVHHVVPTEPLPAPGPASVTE

SMILES	IC50 [1]	IC50 [2]
O=C(c1ccc2c(=O)n(C[C@@H](O)[C@@H]3Cc4ccccc4CN3)ccc2c1)N1C2CCC1COC2 [Example 1, 6-(3-Oxa-8-azabicyclo[3.2.1]octane-8-carbonyl)-2-((R)-2-hydroxy-2-((S)-1,2,3,4-tetrahydroisoquinolin-3-yl)ethyl)isoquinolin-1(2H)-one hydrochloride]	533 nM	430 nM
Cc1nn(C[C@@H](O)[C@@H]2Cc3ccccc3CN2)c(=O)c2ccccc12 [Example 2, 2-((R)-2-Hydroxy-2-((S)-1,2,3,4-tetrahydroisoquinolin-3-yl)ethyl)-4-methylphthalazin-1(2H)-one hydrochloride]	7320 nM	
CCc1nn(C[C@@H](O)[C@@H]2Cc3ccccc3CN2)c(=O)c2ccc(C(=O)N3C4CCC3COC4)cc12 [Example 3, 6-(3-Oxa-8-azabicyclo[3.2.1]octane-8-carbonyl)-4-ethyl-2-((R)-2-hydroxy-2-((S)-1,2,3,4-tetrahydroisoquinolin-3-yl)ethyl)phthalazin-1(2H)-one hydrochloride]	39 nM	1 nM
